# Data published in patent US20240409585A1, “MACROCYCLIC IMMUNOMODULATORS” (priority 2021, published 2024).
# Numbered stars: 1 amine (or outer) side, 2 acyl side, 3 side chain; on linkers, the order of the positions; unused ones are H or OH. Bridge positions count the residues as written; N and C are the ends. Square brackets hold non-standard residues; d marks the D form. Peptide text beside a SMILES is read from it. * marks the point of attachment. Bip(4'-COOH) = N[C@@H](Cc1ccc(-c2ccc(C(=O)O)cc2)cc1)C(=O)O; Bip(4'-NHAc) = CC(=O)Nc1ccc(-c2ccc(C[C@H](N)C(=O)O)cc2)cc1; Phe(3-CF3) = N[C@@H](Cc1cccc(C(F)(F)F)c1)C(=O)O; Ala(morpholin-4-yl) = N[C@@H](CN1CCOCC1)C(=O)O; Phe(4-CONH2) = NC(=O)c1ccc(C[C@H](N)C(=O)O)cc1; Phe(4-COOH) = N[C@@H](Cc1ccc(C(=O)O)cc1)C(=O)O; Bip = N[C@@H](Cc1ccc(-c2ccccc2)cc1)C(=O)O; Abu(3R-NH2) = C[C@@H](N)[C@H](N)C(=O)O; Val(3-OH) = CC(C)(O)[C@H](N)C(=O)O; X11 = CC(N)[C@H](N[*:1])C(=O)[*:2]; Cha = N[C@@H](CC1CCCCC1)C(=O)O; aThr = C[C@H](O)[C@H](N)C(=O)O; Propanoyl(3-OH) = O=C(CCO)*; Carboxymethyl = O=C(O)C*; NMeA = CN[C@@H](C)C(=O)O; Orn = NCCC[C@H](N)C(=O)O; Dab = NCC[C@H](N)C(=O)O; Dap = NC[C@H](N)C(=O)O
# Target: T1, Alexa fluor-647 labeled human PD-L1-Ig binding to Jurkat cell line over-expressing human PD-1 (Homo sapiens, UniProt Q15116)
# T1 construct: expressed in transfected cells; host or cells: Jurkat
# T1 sequence (Q15116 25-288): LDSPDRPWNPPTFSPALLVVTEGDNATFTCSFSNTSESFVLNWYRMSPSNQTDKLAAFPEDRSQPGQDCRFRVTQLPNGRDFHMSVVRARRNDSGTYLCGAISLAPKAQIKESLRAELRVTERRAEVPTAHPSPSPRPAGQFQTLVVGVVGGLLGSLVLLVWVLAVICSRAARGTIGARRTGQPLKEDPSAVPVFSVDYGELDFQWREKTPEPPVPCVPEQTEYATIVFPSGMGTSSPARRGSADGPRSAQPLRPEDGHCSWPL
# Assay: Jurkat-PD-1 Cell Binding High-Content Screening Assay (CBA): Method 3 (Alexa fluor-647 labeled PD-L1-Ig)
# Conditions: Jurkat-PD-1 cells, Alexa fluor-647 labeled PD-L1-Ig 177 nM; head μM; read-out: CBA Method 3 μM
# Procedure, shortened: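 Readout by high-content imaging of PFA-fixed, Hoechst-stained cells after 1 h with 177 nM (final) Alexa fluor-647 PD-L1-Ig. Compound was added first to hPD-1 Jurkat cells in RPMI plus 10% FCS for 2 h at 37 °C.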
row,Compound,IC50 [µM]
1,CC(C)C[C@H]1NC(=O)[C@H](C)N(C)C(=O)[C@H](Cc2ccc(C(N)=O)cc2)NC(=O)[C@H](Cc2ccc(-c3ccccc3)cc2)NC(=O)[C@H](Cc2ccc(OCC(=O)O)cc2)NC(=O)[C@H](Cc2cccc(C(F)(F)F)c2)NC(=O)[C@H](CC(=O)O)NC(=O)[C@H](Cc2ccc(C(=O)O)cc2)NC(=O)[C@H](C(C)N)NC(=O)CSC[C@@H](C(=O)N[C@@H](CCN)C(N)=O)NC(=O)[C@H](CO)NC(=O)[C@H](C(C)(C)O)NC(=O)[C@H](CC2CCCCC2)NC(=O)[C@H](CCN)NC1=O (stereo partly drawn) [Example 5147] ({CH2CO}-[X11][Phe(4-COOH)]D[Phe(3-CF3)]Y(Carboxymethyl)[Bip][Phe(4-CONH2)][NMeA][dL][Dab][Cha][Val(3-OH)]SC[Dab]-NH2; thioether N-14),0.01
2,CC(C)[C@@H]1NC(=O)[C@H](Cc2c[nH]c3ccccc23)NC(=O)[C@H](CC(=O)O)NC(=O)[C@H](Cc2ccc(O)cc2)NC(=O)[C@H](CC2CCCCC2)NC(=O)CSC[C@@H](C(=O)N[C@@H](CCN)C(N)=O)NC(=O)[C@H]([C@H](C)O)NC(=O)[C@H](C(C)(C)O)NC(=O)[C@H](CC2CCCCC2)NC(=O)[C@H](CCC(=O)O)NC(=O)[C@@H](C)NC(=O)[C@H](C)N(C)C(=O)[C@H](C(C)C)NC(=O)[C@H](Cc2ccc(-c3ccccc3)cc2)NC1=O [Example 5150] ({CH2CO}-[Cha]YDWV[Bip]V[NMeA][dA]E[Cha][Val(3-OH)][aThr]C[Dab]-NH2; thioether N-14),0.06
3,CC(=O)Nc1ccc(-c2ccc(C[C@@H]3NC(=O)[C@H](Cc4cccc(C(F)(F)F)c4)NC(=O)[C@H](CC(=O)O)NC(=O)[C@H](Cc4ccc(C(=O)O)cc4)NC(=O)[C@H](CN4CCOCC4)NC(=O)CSC[C@@H](C(=O)N[C@@H](CCN)C(N)=O)NC(=O)[C@H](CCC(=O)O)NC(=O)[C@H](C(C)C)NC(=O)[C@H](CC4CCCCC4)NC(=O)[C@H](CCN)NC(=O)[C@@H](CC(C)C)NC(=O)[C@H](C)N(C)C(=O)[C@H](Cc4ccc(C(=O)O)cc4)NC(=O)[C@H](Cc4ccc(-c5ccccc5)cc4)NC3=O)cc2)cc1 [Example 5159] ({CH2CO}-[Ala(morpholin-4-yl)][Phe(4-COOH)]D[Phe(3-CF3)][Bip(4'-NHAc)][Bip][Phe(4-COOH)][NMeA][dL][Dab][Cha]VEC[Dab]-NH2; thioether N-14),0.04
4,CC(C)C[C@H]1NC(=O)[C@H](C)N(C)C(=O)[C@H](CCC(N)=O)NC(=O)[C@H](Cc2ccc(-c3ccccc3)cc2)NC(=O)[C@H](Cc2ccc(-c3ccc(C(=O)O)cc3)cc2)NC(=O)[C@H](Cc2cccc(C(F)(F)F)c2)NC(=O)[C@H](CC(=O)O)NC(=O)[C@H](Cc2ccc(C(=O)O)cc2)NC(=O)[C@H](CC2CCCCC2)NC(=O)CSC[C@@H](C(=O)N[C@@H](CCN)C(N)=O)NC(=O)[C@H](CCCN)NC(=O)[C@H](C(C)C)NC(=O)[C@H](CC2CCCCC2)NC(=O)[C@H](CCN)NC1=O [Example 5165] ({CH2CO}-[Cha][Phe(4-COOH)]D[Phe(3-CF3)][Bip(4'-COOH)][Bip]Q[NMeA][dL][Dab][Cha]V[Orn]C[Dab]-NH2; thioether N-14),0.03

# The next lines start with the values.
row,IC50 [µM],Compound
1,0.07,CC(=O)Nc1ccc(-c2ccc(C[C@@H]3NC(=O)[C@H](Cc4cccc(C(F)(F)F)c4)NC(=O)[C@H](CC(=O)O)NC(=O)[C@H](Cc4ccc(C(=O)O)cc4)NC(=O)[C@H](Cc4ccc(OCC(=O)O)cc4)NC(=O)CSC[C@@H](C(=O)N[C@@H](CCN)C(N)=O)NC(=O)[C@H](CCC(=O)O)NC(=O)[C@H](C(C)C)NC(=O)[C@H](CC4CCCCC4)NC(=O)[C@H](CCN)NC(=O)[C@@H](CC(C)C)NC(=O)[C@H](C)N(C)C(=O)[C@H](Cc4ccc(OCC(=O)O)cc4)NC(=O)[C@H](Cc4ccc(-c5ccccc5)cc4)NC3=O)cc2)cc1 [Example 5156] ({CH2CO}-Y(Carboxymethyl)[Phe(4-COOH)]D[Phe(3-CF3)][Bip(4'-NHAc)][Bip]Y(Carboxymethyl)[NMeA][dL][Dab][Cha]VEC[Dab]-NH2; thioether N-14)
2,0.04,CC(=O)Nc1ccc(-c2ccc(C[C@@H]3NC(=O)[C@H](Cc4cccc(C(F)(F)F)c4)NC(=O)[C@H](CC(=O)O)NC(=O)[C@H](Cc4ccc(C(=O)O)cc4)NC(=O)[C@H]([C@@H](C)N)NC(=O)CSC[C@@H](C(=O)N[C@@H](CCN)C(N)=O)NC(=O)[C@H](CCC(=O)O)NC(=O)[C@H](C(C)C)NC(=O)[C@H](CC4CCCCC4)NC(=O)[C@H](CCN)NC(=O)[C@@H](CC(C)C)NC(=O)[C@H](C)N(C)C(=O)[C@H](Cc4ccc(C(=O)O)cc4)NC(=O)[C@H](Cc4ccc(-c5ccccc5)cc4)NC3=O)cc2)cc1 [Example 5160] ({CH2CO}-[Abu(3R-NH2)][Phe(4-COOH)]D[Phe(3-CF3)][Bip(4'-NHAc)][Bip][Phe(4-COOH)][NMeA][dL][Dab][Cha]VEC[Dab]-NH2; thioether N-14)
3,0.15,CC(C)C[C@H]1NC(=O)[C@H](C)N(C)C(=O)[C@H](Cc2ccc(C(=O)O)cc2)NC(=O)[C@H](Cc2ccc(-c3ccccc3)cc2)NC(=O)[C@H](Cc2ccc(-c3ccc(C(=O)O)cc3)cc2)NC(=O)[C@H](Cc2cccc(C(F)(F)F)c2)NC(=O)[C@H](CC(=O)O)NC(=O)[C@H](Cc2ccc(C(=O)O)cc2)NC(=O)[C@H](Cc2ccc(OCC(=O)O)cc2)NC(=O)CSC[C@@H](C(=O)N[C@@H](CCN)C(N)=O)NC(=O)[C@H](CCC(=O)O)NC(=O)[C@H](C(C)C)NC(=O)[C@H](CC2CCCCC2)NC(=O)[C@H](CCN)NC1=O [Example 5164] ({CH2CO}-Y(Carboxymethyl)[Phe(4-COOH)]D[Phe(3-CF3)][Bip(4'-COOH)][Bip][Phe(4-COOH)][NMeA][dL][Dab][Cha]VEC[Dab]-NH2; thioether N-14)

# Same assay, conditions: Jurkat-PD-1 cells, Alexa fluor-647 labeled PD-L1-Ig 177 nM; nM; read-out: CBA Method 3
row,IC50 [µM],Compound
1,0.0009,CC(=O)Nc1ccc(-c2ccc(C[C@@H]3NC(=O)[C@H](Cc4cccc(C(F)(F)F)c4)NC(=O)[C@H](CC(=O)O)NC(=O)[C@H](Cc4ccc(C(=O)O)cc4)NC(=O)[C@H](C(C)N)NC(=O)CSC[C@@H](C(=O)N[C@@H](CCN)C(N)=O)NC(=O)[C@H](CNC(=O)CCO)NC(=O)[C@H](C(C)C)NC(=O)[C@H](CC4CCCCC4)NC(=O)[C@H](CCN)NC(=O)[C@@H](CC(C)C)NC(=O)[C@H](C)N(C)C(=O)[C@H](Cc4ccc(C(N)=O)cc4)NC(=O)[C@H](Cc4ccc(-c5ccccc5)cc4)NC3=O)cc2)cc1 (stereo partly drawn) [Example 5148] ({CH2CO}-[X11][Phe(4-COOH)]D[Phe(3-CF3)][Bip(4'-NHAc)][Bip][Phe(4-CONH2)][NMeA][dL][Dab][Cha]V[Dap](Propanoyl(3-OH))C[Dab]-NH2; thioether N-14)
2,0.0059,CC(=O)Nc1ccc(-c2ccc(C[C@@H]3NC(=O)[C@H](Cc4cccc(C(F)(F)F)c4)NC(=O)[C@H](CC(=O)O)NC(=O)[C@H](Cc4ccc(C(=O)O)cc4)NC(=O)[C@H](CN4CCOCC4)NC(=O)CSC[C@@H](C(=O)N[C@@H](CCN)C(N)=O)NC(=O)[C@H](CCC(=O)O)NC(=O)[C@H](C(C)C)NC(=O)[C@H](CC4CCCCC4)NC(=O)[C@H](CCN)NC(=O)[C@@H](CC(C)C)NC(=O)[C@H](C)N(C)C(=O)[C@H](Cc4ccc(C(=O)O)cc4)NC(=O)[C@H](Cc4ccc(-c5ccccc5)cc4)NC3=O)cc2)cc1 [Example 5149] ({CH2CO}-[Ala(morpholin-4-yl)][Phe(4-COOH)]D[Phe(3-CF3)][Bip(4'-NHAc)][Bip][Phe(4-COOH)][NMeA][dL][Dab][Cha]VEC[Dab]-NH2; thioether N-14)
3,0.0063,CC(=O)Nc1ccc(-c2ccc(C[C@@H]3NC(=O)[C@H](Cc4cccc(C(F)(F)F)c4)NC(=O)[C@H](CC(=O)O)NC(=O)[C@H](Cc4ccc(C(=O)O)cc4)NC(=O)[C@H]([C@@H](C)N)NC(=O)CSC[C@@H](C(=O)N[C@@H](CCN)C(N)=O)NC(=O)[C@H](CCC(=O)O)NC(=O)[C@H](C(C)C)NC(=O)[C@H](CC4CCCCC4)NC(=O)[C@H](CCN)NC(=O)[C@@H](CC(C)C)NC(=O)[C@H](C)N(C)C(=O)[C@H](Cc4ccc(C(=O)O)cc4)NC(=O)[C@H](Cc4ccc(-c5ccccc5)cc4)NC3=O)cc2)cc1 [Example 5154] ({CH2CO}-[Abu(3R-NH2)][Phe(4-COOH)]D[Phe(3-CF3)][Bip(4'-NHAc)][Bip][Phe(4-COOH)][NMeA][dL][Dab][Cha]VEC[Dab]-NH2; thioether N-14)
4,0.0005,CC(=O)Nc1ccc(-c2ccc(C[C@@H]3NC(=O)[C@H](Cc4cccc(C(F)(F)F)c4)NC(=O)[C@H](CC(=O)O)NC(=O)[C@H](Cc4ccc(C(=O)O)cc4)NC(=O)[C@H]([C@@H](C)N)NC(=O)CSC[C@@H](C(=O)N[C@@H](CCN)C(N)=O)NC(=O)[C@H](CCC(=O)O)NC(=O)[C@H](C(C)C)NC(=O)[C@H](CC4CCCCC4)NC(=O)[C@H](CCN)NC(=O)[C@@H](CC(C)C)NC(=O)[C@H](C)N(C)C(=O)[C@H](Cc4ccc(OCC(=O)O)cc4)NC(=O)[C@H](Cc4ccc(-c5ccccc5)cc4)NC3=O)cc2)cc1 [Example 5162] ({CH2CO}-[Abu(3R-NH2)][Phe(4-COOH)]D[Phe(3-CF3)][Bip(4'-NHAc)][Bip]Y(Carboxymethyl)[NMeA][dL][Dab][Cha]VEC[Dab]-NH2; thioether N-14)
5,0.0025,CC(=O)Nc1ccc(-c2ccc(C[C@@H]3NC(=O)[C@H](Cc4cccc(C(F)(F)F)c4)NC(=O)[C@H](CC(=O)O)NC(=O)[C@H](Cc4ccc(C(=O)O)cc4)NC(=O)[C@H](Cc4ccc(OCC(=O)O)cc4)NC(=O)CSC[C@@H](C(=O)N[C@@H](CCN)C(N)=O)NC(=O)[C@H](CCC(=O)O)NC(=O)[C@H](C(C)C)NC(=O)[C@H](CC4CCCCC4)NC(=O)[C@H](CCN)NC(=O)[C@@H](CC(C)C)NC(=O)[C@H](C)N(C)C(=O)[C@H](Cc4ccc(OCC(=O)O)cc4)NC(=O)[C@H](Cc4ccc(-c5ccccc5)cc4)NC3=O)cc2)cc1 [Example 5163] ({CH2CO}-Y(Carboxymethyl)[Phe(4-COOH)]D[Phe(3-CF3)][Bip(4'-NHAc)][Bip]Y(Carboxymethyl)[NMeA][dL][Dab][Cha]VEC[Dab]-NH2; thioether N-14)
